# Measurements reported in patent US20200352880A1 (priority 2019, published 2020).
# Legend:
# [1] = tested on: neutrophils; assay: E44-induced NET formation: DNA release (PicoGreen) and neutrophil elastase (NETosis Assay Kit) from neutrophils; assay type: cell-based; settings: concentration-dependent
# Source text: (§1) Since DNA is a major component of NETs, NET formation is first examined by determining the amount of DNA released from neutrophils. […] Methods are described in Reference 1.
# The methods of neutrophil isolation and preparation are similar to those described previously, and the amount of NE is detected by following kit instructions.
# [2] = tested on: E44; assay: killing, NET trapping and phagocytosis of E44 by neutrophils; assay type: cell-based, E. coli
# Method: (§2) The bactericidal functions of neutrophils include phagocytosis and NET-mediated killing. […] Experiments are performed according to the procedures described in Reference 2. […] The bacteria are collected and spread over Brain Heart Infusion (BHI) agar plates containing rifampin and allowed to culture for 12-16 hours, then the number of bacterial colonies of each sample is counted. […] After 1-hour incubation, the samples are centrifuged, collected, and mounted on microscope slides, which are sealed after DAPI staining, then phagocytosis of PMNs is observed and phagocytized particles are counted under a fluorescence microscope. […] However, early phagocytosis is not accompanied by a significant change in PMN structure when MOI<50. When MOI>50, each PMN on average includes at least 50 E44, a significant nuclear morphological change occurs.
# [3] = tested on: neutrophils; assay: MRSA-induced NET formation (release of neutrophil DNA); assay type: cell-based
# Source text: as §1
# (§3) Experimental procedures of MEM enhancing NET formation and facilitating killing of MRSA by neutrophils are the same as described previously.
# [4] = tested on: MRSA; assay: killing of MRSA by neutrophils; assay type: cell-based, methicillin-resistant Staphylococcus aureus; settings: increased concentration of MEM (1-25 μM); concentration-dependent
# Method: as §2, §3
# [5] = tested on: E44; assay: NET formation in E44-infected mice (serum free DNA and NE); assay type: in vivo, C57 mice; settings: MEM 5-10 μg/g body weight intraperitoneally, 24 hours
# Method: After 24 hours, serum is obtained from blood samples collected from hearts, and the amounts of free DNA and neutrophil elastase (NE) in the serum of each mouse are determined using PicoGreen and Mouse PMN Elastase ELISA Kit (R&D Systems) respectively.
# [6] = tested on: E44; assay: spread of E44 in infected mice (bacterial counts in blood, livers, lungs, spleens); assay type: in vivo, C57 mice; settings: MEM 5-10 μg/g body weight intraperitoneally, 24 hours
# Method: After 24 hours of E44 infection, the mice are dissected to obtain blood, livers, lungs, and spleens under aseptic condition. The obtained blood, after performing an appropriate serial dilution, is spread over BHI (containing rifampin) agar plates. The obtained livers, lungs, and spleens are precisely weighed, added with pre-cooled sterile PBS in a ratio of 0.1 g/ml, and fully homogenized. The homogenates, after performing an appropriate serial dilution, are spread over BHI (containing rifampin) agar plates.
# After confirming that MEM may enhance NET formation in bacteria-infected mice, whether MEM may block the spread of bacteria in mice is discussed. […] After 24 hours of bacterial infection, the mice are dissected to obtain blood, livers, lungs, and spleens under aseptic condition for bacterial count determination.
# [7] = tested on: E44; assay: killing of E44 by phagocytosis in dHL60 cells after CHRNA7 siRNA silencing; assay type: cell-based, E. coli; settings: MEM dose up to 50 μM
# Method: FIGS. 5A, 5B, 5C, and 5D illustrate the influence on phagocytosis by PMNs after gene silencing of CHRNA7 and S100A9. 2×10^6/ml HL60 cells are treated with 1.3% DMSO for cell stimulation and induction, and cell morphology is observed under an inverted microscope after 4-5 days. Compared to the control group, the cell volume gradually enlarges, granulocyte nuclear shapes such as kidney-shaped (banded) nucleus, segmented (multi-lobed) nucleus, bean-shaped nucleus appear after 48 hours and gradually increase over time. Cell status of each experimental group is identified using Typan Blue Exclusion Test and Wright-Giemsa Stain Method to meet the requirements for cell quality in follow-up studies. Differentiated neutrophils are added with CHRNA7 and S100A9siRNA, respectively, and treated with lipofectamine 2000 in 24-well plates, a supplemental complete cell culture medium is added after 6 hours to incubate for 48 hours, and the expression of CHRNA7 and S100A9 in differentiated HL60 (dHL60) cells is examined. Control siRNA acts as the control group, and GAPDH represents the housekeeping gene.
# Samples are prepared by the dHL60 cells and E44 in a ratio of 1:5 and allowed to interact for 1 hour.
# [8] = tested on: α7nAChR and S100A9; assay: immunofluorescence of α7nAChR and S100A9 in PMNs incubated with E44; assay type: cell-based; settings: PMNs with bacteria (E44), compared to bacteria groups
# Method: The next step is to further examine whether alpha7 nicotinic acetylcholine receptor (α7nAChR) is associated with antimicrobial protein S100A9 during the process of phagocytizing E44 by PMNs. […] Next, an immunofluorescence staining test is performed on the samples as follows: a primary antibody is added to incubate with α7nAChR and S100A9 overnight at 4° C., and then the corresponding FITC and PE-conjugated secondary antibodies are added to incubate for 1 hour at room temperature, after mounting the samples on microscope slides with DAPI sealing, positioning and expression of α7nAChR and S100A9 are observed under a fluorescence microscope. Compared to the control group, S100A9 (red) is redistributed to the cell edge and area around the nucleus (FIG. 6) after infected with E44, it is observed that α7nAChR (green) and S100A9 (red) are located in the same position with presenting of colocalization, and the expression of both is elevated, α7nAChR (green) and S100A9 (red) also appear to have a high degree of colocalization(R close to 1) after ImageJ software analysis.
# [9] = tested on: PMNs; assay: immunofluorescence of MPO, S100A9 and DNA in PMNs (NET formation); assay type: cell-based; settings: PMA groups and E44 groups treated with MEM
# [10] = tested on: mouse BMECs; assay: gene expression profile of E44-infected BMECs by Next Generation Sequencing; assay type: cell-based; settings: E44 infection 0.5 hours
# Method: After the mouse BMECs are infected with E44 for 0.5 hours, the cells are collected to extract RNA, which is sent to Hua-Da Company (China) for Next Generation Sequencing analysis.
# After the mouse BMECs are infected with E44 for 0.5 hours, the cells are collected to extract RNA, which is sent to Hua-Da Company (China) to analyze alterations on gene expression profile using Next Generation Sequencing and look for differentially expressed genes, a total of 978 differentially expressed genes are found.
# [11] = tested on: cBMECs; assay: number of circulating brain microvascular endothelial cells (cBMECs) in blood; settings: in vivo
# Method: The protocol is prepared as follows:
# According to manufacturer's instructions, Dynabeads M-450 solution with a final concentration of 4×10^8 beads/ml is prepared by Hank's Balanced Salt Solution. BMECs in brain tissues and blood are isolated using UEA I. The BMECs from the brain tissues are cultured with RPMI-1640 medium containing 10% fetal bovine serum and identified using CD146 and Mfsd2a antibodies.
# [12] = molecular target: α7nAChR (Homo sapiens, UniProt P36544); settings: cited from earlier work
# α7nAChR, sequence (P36544 23-502): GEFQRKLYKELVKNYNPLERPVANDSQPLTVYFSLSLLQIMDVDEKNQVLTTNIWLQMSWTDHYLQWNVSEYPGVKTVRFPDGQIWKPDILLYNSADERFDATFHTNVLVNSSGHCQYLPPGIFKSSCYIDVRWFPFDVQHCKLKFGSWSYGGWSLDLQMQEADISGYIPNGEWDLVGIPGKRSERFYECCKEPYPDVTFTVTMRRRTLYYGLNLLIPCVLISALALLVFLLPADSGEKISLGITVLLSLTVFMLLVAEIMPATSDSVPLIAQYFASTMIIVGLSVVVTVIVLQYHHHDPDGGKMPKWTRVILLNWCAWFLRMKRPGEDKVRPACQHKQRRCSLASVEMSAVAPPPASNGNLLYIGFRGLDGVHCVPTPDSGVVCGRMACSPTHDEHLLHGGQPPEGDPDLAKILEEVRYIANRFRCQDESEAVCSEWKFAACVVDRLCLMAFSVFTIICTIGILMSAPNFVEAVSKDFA
smiles,measurement,setting,value
"C[C@]12C[C@@H]3C[C@](C)(C1)C[C@@](N)(C3)C2.Cl [MEM, 3,5-Dimethyl-1-aminoadamantane hydrochloride]",release of DNA from neutrophils under the effect of E44,"[1]; E44 MOI=10, different concentrations of MEM, 4 hours",significantly enhanced
same,production of neutrophil elastase (NE) under the effect of E44,[1]; E44 with addition of MEM,significantly increased
same,phagocytosis of E44 by PMNs,"[2]; 50 μM MEM, E44 MOI=1, 5, 50, 100, 1-hour incubation, versus E44 groups",more E44 are phagocytized
same,NETs trapping of E44,[2]; DNase used to dissolve DNA,concentration-dependently enhance
same,"killing of E44 by neutrophils, including phagocytosis and NET-mediated killing","[2]; E44 MOI=10, MEM 0, 10, 20, 50 μM, 2 hours, with or without Cytochalasin D",concentration-dependently enhance
same,release of neutrophil DNA under the effect of MRSA,[3],significantly enhance
same,survival rate of MRSA,[4],gradually decreases
same,NE in the blood (serum) of E44-infected mice,[5],significantly enhance
same,free DNA in the blood (serum) of E44-infected mice,[5],significantly enhance
same,spread of bacteria (E44) in mice,[6],significantly block
same,effect of MEM on phagocytizing bacteria by PMNs after CHRNA7 down-regulation,[7],not obvious
same,degree of colocalization of α7nAChR and S100A9,[8],remarkably reduced
same,expression of α7nAChR and S100A9,[8],significantly decreased
same,"MPO, S100A9 and DNA formation (NET formation)",[9],"a large number of MPO (green), S100A9 (red), and DNA (blue) are formed"
same,E44-induced alterations on gene expression,[10],reverse
same,"anti-inflammatory genes IL-33, IL-18rap, MMP10, Irs1 expression",[10],significantly up-regulate
same,"pro-inflammatory genes A20, CISH, Ptgds, ZEP36 expression",[10],down-regulate
same,number of cBMECs in blood,[11],reduce
same,inhibitory effect on α7nAChR compared with inhibitory effect on NMDAR,[12],stronger
